Earlier results as cited in paper PMC4939907 (Angewandte Chemie (International ed. in English), 2016).

System: cancer (e.g., HeLa) and normal (e.g., HS-5) cells
Conditions: cancer (e.g., HeLa) versus normal (e.g., HS-5) cells; ref 4c, 4d, 10b

Substance: Nap-D-Phe-D-Phe-D-pTyr
- selectivity for cancer cells: selectively inhibits cancer cells
